The values below come from ChEMBL document CHEMBL2021844, “The central valine concept provides an entry in a new class of non peptide inhibitors of the p53-MDM2 interaction” (Bioorg Med Chem Lett, 2012).

For experiment [1], the system named is SJSA-1. As to the kind of experiment: Antiproliferative activity against human SJSA1 cells expressing p53. It counts as functional, cell-based.
The subject of experiment [2] is SJSA-1. The experiment in a line: Ratio of IC50 for human SJSA1 cells expressing p53 to IC50 for human p53 deficient SAOS2 cells. The format is functional.
For the next experiment, the target named is T1, Protein Mdm4 (Homo sapiens, UniProt O15151).
T1 sequence (O15151 whole entry): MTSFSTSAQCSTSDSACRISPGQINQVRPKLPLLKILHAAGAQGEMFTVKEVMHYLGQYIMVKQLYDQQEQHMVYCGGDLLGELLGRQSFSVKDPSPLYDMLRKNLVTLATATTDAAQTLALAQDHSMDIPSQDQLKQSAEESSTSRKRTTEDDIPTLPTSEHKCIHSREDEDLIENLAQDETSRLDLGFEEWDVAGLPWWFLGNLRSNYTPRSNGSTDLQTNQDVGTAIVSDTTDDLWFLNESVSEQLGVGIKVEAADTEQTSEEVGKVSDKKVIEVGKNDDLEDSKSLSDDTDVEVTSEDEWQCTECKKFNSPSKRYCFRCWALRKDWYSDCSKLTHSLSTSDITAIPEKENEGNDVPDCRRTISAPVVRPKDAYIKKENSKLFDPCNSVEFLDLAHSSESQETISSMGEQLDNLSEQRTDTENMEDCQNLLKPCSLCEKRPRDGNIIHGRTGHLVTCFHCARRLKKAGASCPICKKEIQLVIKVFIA
As to the kind of experiment: Inhibition of p53 derived peptide binding to MDM4 using fluorescent dye Cy5 by TR-FRET assay.

The target of experiment [3] is Tumour suppressor p53/oncoprotein Mdm2 (Homo sapiens, UniProt Q00987). As to the kind of experiment: Inhibition of p53 (18 to 26)-MDM2 (2 to 188) interaction using fluorescent dye Cy5 by TR-FRET assay. It counts as protein assay. (TR-FRET usually uses a lanthanide donor and a delayed reading to cut background.)
Sequence of Tumour suppressor p53/oncoprotein Mdm2 (P04637 whole entry): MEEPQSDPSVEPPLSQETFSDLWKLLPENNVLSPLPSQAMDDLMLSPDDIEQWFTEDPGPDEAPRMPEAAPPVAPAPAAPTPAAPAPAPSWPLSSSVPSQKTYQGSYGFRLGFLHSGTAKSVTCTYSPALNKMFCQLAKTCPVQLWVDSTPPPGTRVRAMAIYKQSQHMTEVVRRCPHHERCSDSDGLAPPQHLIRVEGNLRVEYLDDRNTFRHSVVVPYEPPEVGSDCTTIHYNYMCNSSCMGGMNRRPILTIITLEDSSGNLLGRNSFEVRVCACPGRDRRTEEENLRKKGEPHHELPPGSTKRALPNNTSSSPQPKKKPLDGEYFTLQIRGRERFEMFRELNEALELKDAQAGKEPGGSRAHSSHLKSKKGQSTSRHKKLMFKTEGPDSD
Sequence of Tumour suppressor p53/oncoprotein Mdm2 (Q00987 whole entry): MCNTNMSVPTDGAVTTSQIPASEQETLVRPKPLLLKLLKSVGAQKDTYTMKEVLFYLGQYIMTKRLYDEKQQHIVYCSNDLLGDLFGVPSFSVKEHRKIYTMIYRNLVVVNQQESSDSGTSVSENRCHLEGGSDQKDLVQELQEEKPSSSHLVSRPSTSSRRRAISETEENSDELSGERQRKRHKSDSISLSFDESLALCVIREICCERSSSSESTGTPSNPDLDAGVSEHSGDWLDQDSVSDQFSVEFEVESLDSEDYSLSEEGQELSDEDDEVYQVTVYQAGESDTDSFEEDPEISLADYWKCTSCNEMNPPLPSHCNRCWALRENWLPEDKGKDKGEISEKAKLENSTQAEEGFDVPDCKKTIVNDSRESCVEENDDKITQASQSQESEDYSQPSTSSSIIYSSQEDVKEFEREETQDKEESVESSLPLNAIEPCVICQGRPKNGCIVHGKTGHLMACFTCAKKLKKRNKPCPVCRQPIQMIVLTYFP

As for `O=C(NCCN1CCOCC1)c1[nH]c2cc(Cl)ccc2c1-c1c(-c2ccccc2)ncn1Cc1ccc(Cl)cc1`, the IC50 in the experiment with SJSA-1 [1] came to 7.3 µM; on Protein Mdm4 it was 19 µM. The “Ratio IC50” value in the experiment with SJSA-1 [2] came out at 3.

For `CC(C)CCn1cnc(-c2ccccc2)c1-c1c[nH]c2cc(Cl)ccc12`, the IC50 on Protein Mdm4 worked out at 18 µM; in experiment [3], 0.9 µM.

Consider `Clc1ccc(Cn2cnc(-c3ccccc3)c2-c2c[nH]c3cc(Cl)ccc23)cc1`, for which the IC50 turned out to be 22 µM at Protein Mdm4 and 0.2 µM in experiment [3].

Take `COc1ccc(Cn2c(C)nc(Cc3ccc(N)cc3)c2Cc2ccc(Cl)cc2)cc1`: the IC50 was determined as 70 µM at Protein Mdm4 and 3.4 µM in experiment [3].

In general, IC50 refers to the point on the concentration scale where inhibition reaches its midpoint. Higher therefore signals weaker potency in that assay.
